{"source": "patent US20090328243A1", "about": "“Secreted proteins as markers for cell differentiation” (priority 2003, published 2009)", "key": {"[1]": {"test_system": "ES cells stably transfected with the α-MHC-SEAP vector (D3 mouse embryonic stem cells), differentiation into cardiac cells", "conditions": "EB culture supernatants after 13 days", "method": "After 13 days culture supernatants were assayed for SEAP activity. Shown are mean values of duplicate samples from which background SEAP activity was substracted. Activities are expressed as percentage of SEAP activity in samples containing only solvent (DMSO) but no retinoic acid.\nAll incubations of cell cultures were performed at 37° C. in a humidified atmosphere containing 5% CO2.\nCells were collected by centrifugation (800 g for 5 min) and resuspended in Iscove's Modified Dulbecco's Medium (IMDM, Invitrogen) supplemented with 20% (v/v) fetal bovine serum (FBS, Invitrogen) at a density of 2×10^6 cells/ml. To aggregate ES cells, 4 ml of this suspension were incubated on a 6 cm bacteriological dish (Greiner) on a rocking platform (GFL 3006) with agitation (50 rpm). After 6 hours, 2 ml of that culture were added to 13 ml IMDM containing 20% FBS in a T25 flask (Falcon). The flask was incubated with rocking (50 rpm; GFL 3006) for 18 hours. During this procedure ES cell aggregates (embryoid bodies; EBs) were formed.\nIn 10 cm petri dishes (bacteriological grade, Greiner) medium was prepared consisting of IMDM supplemented with 20% FBS and retinoic acid added from above stocks to yield final concentrations of 10^−7 M, 10^−8 M, 10^−9 M, 10^−10 M, 10^−11 M, and 10^−12 M retinoic acid, respectively. One dish received DMSO (final concentration 0.1% (v/v)) without retinoic acid (solvent control). Each dish contained 10 ml of medium. 70 EBs were transferred into each petri dish and incubated for 4 days.\nSubsequently, EBs were transferred to 6-well plates (tissue culture grade; Becton-Dickinson). Each well contained 3 ml IMDM with 20% FBS and retinoic acid and DMSO as described above for the culture in 10 cm dishes. […]\nSamples were assayed for SEAP activity using the Great EscAPe SEAP Fluorescence Detection Kit (Becton-Dickinson) following the manufacturer's instructions. Fluorescence was measured using a microplate reader (Safire, Tecan). Background activity was determined by assaying a sample of fresh medium (Knockout™ D-MEM supplemented with 20% (v/v) Knockout™ SR)."}, "[2]": {"test_system": "ES cells", "conditions": "in vitro; literature (Seiler et al., ALTEX 2002); cited from earlier work"}}, "note": "Like-named read-outs stand apart in the source and are kept apart here.", "data": [{"smiles": "CC1=C(/C=C/C(C)=C/C=C/C(C)=C/C(=O)O)C(C)(C)CCC1", "note": "[retinoic acid, all-trans retinoic acid]", "values": [{"measurement": "SEAP activity", "setting": "[1]; 10^−8 M retinoic acid, solvent (DMSO) control", "result": "decreased sharply"}, {"measurement": "SEAP activity", "setting": "[1]; retinoic acid at concentrations higher than 10^−8 M (10^−7 M)", "result": "no activity was observed"}, {"measurement": "SEAP activity as compared to controls", "setting": "[1]; retinoic acid below 10^−9 M, solvent (DMSO) control", "result": "no influence"}, {"measurement": "generation of cardiomyocytes from ES cells", "setting": "[2]", "result": "inhibit the generation of cardiomyocytes"}]}]}
